Data from patent publication US6063778A, “Cephalosporin derivatives and processes for the preparation thereof” (Il-Dong Pharm. Co., Ltd., priority 1995, dated 2000).
≈ marks a conversion by molar mass, not a printed value. Like-named read-outs stand apart in the source and are kept apart here.

How the values were obtained:
[1] = system: Enterobacter cloace 1321E; experiment: MIC by agar dilution, in vitro activity test; type: cell-based; settings: 37° C., 18 to 20 hours, read-out: Minimal Inhibitory Concentration (MIC)
Protocol: (§1) These MIC values were determined by agar dilution method: that is, two-fold dilutions of each of the test compounds were made and dispersed in a Mueller-Hinton Broth medium. Standard test strain which had the 10^6 CFU per ml was inoculated on the medium, and was incubated at 37° C. for 18 to 20 hours.

Enterobacter cloace P99 = experiment: MIC by agar dilution, in vitro activity test; type: cell-based; settings: P99, 20 h, read-out: Minimal Inhibitory Concentration (MIC)
Protocol: as §1

Escherichia coli 078 = experiment: MIC by agar dilution, in vitro activity test; type: cell-based; settings: 37° C., 18 to 20 hours, read-out: Minimal Inhibitory Concentration (MIC)
Protocol: as §1

Escherichia coli 1507E = experiment: MIC by agar dilution, in vitro activity test; type: cell-based; settings: read-out: Minimal Inhibitory Concentration (MIC)
Protocol: as §1

Escherichia coli DC 0 = experiment: MIC by agar dilution, in vitro activity test; type: cell-based; settings: DC0, 37° C., 18 to 20 hours, read-out: Minimal Inhibitory Concentration (MIC)
Protocol: as §1

Escherichia coli DC 2 = experiment: MIC by agar dilution, in vitro activity test; type: cell-based; settings: DC2, 37° C., 18 to 20 hours, read-out: Minimal Inhibitory Concentration (MIC)
Protocol: as §1

Escherichia coli TEM = experiment: MIC by agar dilution, in vitro activity test; type: cell-based; settings: 20 h, read-out: Minimal Inhibitory Concentration (MIC)
Protocol: as §1

[2] = system: Klebsiella aerogenes 1082E; experiment: MIC by agar dilution, in vitro activity test; type: cell-based; settings: 37° C., 18 to 20 hours, read-out: Minimal Inhibitory Concentration (MIC)
Protocol: as §1

[3] = system: Klebsiella aerogenes 1522E; experiment: MIC by agar dilution, in vitro activity test; type: cell-based; settings: read-out: Minimal Inhibitory Concentration (MIC)
Protocol: as §1

[4] = system: Pseudomonas aeruginosa 1592E; experiment: MIC by agar dilution, in vitro activity test; type: cell-based; settings: 37° C., 18 to 20 hours, read-out: Minimal Inhibitory Concentration (MIC)
Protocol: as §1

[5] = system: Pseudomonas aeruginosa 1771M; experiment: MIC by agar dilution, in vitro activity test; type: cell-based; settings: 20 h, read-out: Minimal Inhibitory Concentration (MIC)
Protocol: as §1

[6] = system: Pseudomonas aeruginosa 9071; experiment: MIC by agar dilution, in vitro activity test; type: cell-based; settings: 37° C., 18 to 20 hours, read-out: Minimal Inhibitory Concentration (MIC)
Protocol: as §1

Salmonella typhimurium = experiment: MIC by agar dilution, in vitro activity test; type: cell-based; settings: Salmonella enterica, 37° C., 18 to 20 hours, read-out: Minimal Inhibitory Concentration (MIC)
Protocol: as §1

[7] = system: Staphylococcus aureus 285; experiment: MIC by agar dilution, in vitro activity test; type: cell-based; settings: 37° C., 18 to 20 hours, read-out: Minimal Inhibitory Concentration (MIC)
Protocol: as §1

[8] = system: Staphylococcus aureus 503; experiment: MIC by agar dilution, in vitro activity test; type: cell-based; settings: 37° C., 18 to 20 hours, read-out: Minimal Inhibitory Concentration (MIC)
Protocol: as §1

[9] = system: Staphylococcus aureus SG511; experiment: MIC by agar dilution, in vitro activity test; type: cell-based; settings: 37° C., 18 to 20 hours, read-out: Minimal Inhibitory Concentration (MIC)
Protocol: as §1

[10] = system: Streptococcus faecium MD 8b; experiment: MIC by agar dilution, in vitro activity test; type: cell-based; settings: Enterococcus faecium, MD8B, 20 h, read-out: Minimal Inhibitory Concentration (MIC)
Protocol: as §1

[11] = system: Streptococcus pyogenes 71A; experiment: MIC by agar dilution, in vitro activity test; type: cell-based; settings: 37° C., 18 to 20 hours, read-out: Minimal Inhibitory Concentration (MIC)
Protocol: as §1

[12] = system: Pseudomonas aeruginosa 1771; experiment: MIC by agar dilution, in vitro activity test; type: cell-based; settings: 37° C., 18 to 20 hours, read-out: Minimal Inhibitory Concentration (MIC)
Protocol: These MIC values were determined by agar dilution method: that is, two-fold dilutions of each of the test compounds were made and dispersed in a Mueller-Hinton Broth medium.

[13] = system: Staphylococcus aureus, Escherichia coli and Pseudomonas aeruginosa; experiment: MIC by agar dilution, comparison in words; type: cell-based; settings: against Staphylococcus aureus, vs Cefotaxime
Protocol: as §1

Pseudomonas aeruginosa = experiment: MIC by agar dilution, comparison in words; type: cell-based; settings: against Pseudomonas aeruginosa; vs Cefpirome
Protocol: as §1

Acute toxicity study = type: in vivo; settings: in vivo
Protocol: (§2) In order to illustrate usefulness of the compounds of the present invention, acute toxicity test of the compounds synthesized in the above Examples were carried out. Each dose of the compounds dissolved in saline and buffer solution (PH=7.0) was administered by intravenous or subcutaneous injection. Mortalities of the animals was recorded seven days latter.
(§3) .asterisk-pseud. Mouse: Male ICR strain, 4 weeks

[14] = system: Pseudomonas aeruginosa 9027; experiment: MIC by agar dilution, in vitro activity test; type: cell-based; settings: 37° C., 18 to 20 hours, read-out: Minimal Inhibitory Concentration (MIC)
Protocol: as §1

[15] = system: Streptococcus pyogenes 77A; experiment: MIC by agar dilution, in vitro activity test; type: cell-based; settings: 37° C., 18 to 20 hours, read-out: Minimal Inhibitory Concentration (MIC)
Protocol: as §1

Mouse = experiment: Acute toxicity study; type: in vivo; settings: 10080 min
Protocol: as §2, §3

[16] = Escherichia coli 1507E, agar dilution, 37° C., 18 to 20 hours
[17] = Klebsiella aerogenes 1522E, agar dilution, 37° C., 18 to 20 hours
[18] = iv, i.v, male ICR mouse, 4 weeks, mortality at seven days, read-out: LD50 i.v
[19] = sc, s.c, male ICR mouse, 4 weeks, mortality at seven days, read-out: LD50 s.c

Cc1ncsc1C[N+](C)(C)C/C=C/C1=C(C(=O)[O-])N2C(=O)[C@@H](NC(=O)/C(=N\OCCF)c3nsc(N)n3)[C@H]2SC1 [Example 14, 7β-[(Z)-2-(5-amino-1,2,4-thiadiazol-3-yl)-2-fluoroethoxyiminoacetamido]-3-[(E)-3-[(4-methylthiazol-5-yl)-methyldimethylammonio]-1-propen-1-yl]3-cephem-4-carboxylate]
MIC [1]: 0.012 µg/mL (≈ 0.0196 µM) | MIC (Enterobacter cloace P99): 0.4 µg/mL (≈ 0.655 µM) | MIC (Escherichia coli 078): 0.012 µg/mL (≈ 0.0196 µM) | MIC (Escherichia coli 1507E; Escherichia coli, 1507E, 20 h): 0.025 µg/mL (≈ 0.0409 µM) | MIC (Escherichia coli DC 0): < 0.006 µg/mL | MIC (Escherichia coli DC 2): 0.05 µg/mL (≈ 0.0819 µM) | MIC (Escherichia coli TEM): 0.025 µg/mL (≈ 0.0409 µM) | MIC [2]: 3.1 µg/mL (≈ 5.08 µM) | MIC ([3]; Klebsiella aerogenes, 1522E, 20 h): 0.025 µg/mL (≈ 0.0409 µM) | MIC [4]: 3.1 µg/mL (≈ 5.08 µM) | MIC [5]: 0.4 µg/mL (≈ 0.655 µM) | MIC [6]: 12.5 µg/mL (≈ 20.5 µM) | MIC (Salmonella typhimurium): 0.1 µg/mL (≈ 0.164 µM) | MIC [7]: 0.8 µg/mL (≈ 1.31 µM) | MIC [8]: 0.8 µg/mL (≈ 1.31 µM) | MIC [9]: 0.4 µg/mL (≈ 0.655 µM) | MIC [10]: > 100 µg/mL | MIC [11]: 0.05 µg/mL (≈ 0.0819 µM) | MIC [12]: 3.1 µg/mL (≈ 5.08 µM) | MICs compared with Cefotaxime [13]: superior to that of Cefotaxime

CC[N+](C)(CC=CC(N)=O)C/C=C/C1=C(C(=O)[O-])N2C(=O)[C@@H](NC(=O)/C(=N\OC)c3nsc(N)n3)[C@H]2SC1 (stereo partly drawn) [Example 13, 7β-[(Z)-2-(5-amino-1,2,4-thiadiazol-3-yl)-2-methoxyiminoacetamido]-3-[(E)-3-[(1-carbamoyl-1-propen-3-yl)-3-ethylmethylammonio]-1-propen-1-yl]3-cephem-4-carboxylate]
MIC [1]: 0.05 µg/mL (≈ 0.0886 µM) | MIC (Enterobacter cloace P99): 1.6 µg/mL (≈ 2.83 µM) | MIC (Escherichia coli 078): 0.05 µg/mL (≈ 0.0886 µM) | MIC (Escherichia coli 1507E; [16]): 0.1 µg/mL (≈ 0.177 µM) | MIC (Escherichia coli DC 0): 0.025 µg/mL (≈ 0.0443 µM) | MIC (Escherichia coli DC 2): 0.2 µg/mL (≈ 0.354 µM) | MIC (Escherichia coli TEM): 0.05 µg/mL (≈ 0.0886 µM) | MIC [2]: 3.1 µg/mL (≈ 5.49 µM) | MIC [3, 17]: 0.2 µg/mL (≈ 0.354 µM) | MIC [4]: 1.6 µg/mL (≈ 2.83 µM) | MIC [5]: 0.4 µg/mL (≈ 0.708 µM) | MIC [6]: 3.1 µg/mL (≈ 5.49 µM) | MIC (Salmonella typhimurium): 0.2 µg/mL (≈ 0.354 µM) | MIC [7]: 0.8 µg/mL (≈ 1.42 µM) | MIC [8]: 0.8 µg/mL (≈ 1.42 µM) | MIC [9]: 0.8 µg/mL (≈ 1.42 µM) | MIC [10]: > 100 µg/mL | MIC [11]: 0.025 µg/mL (≈ 0.0443 µM) | MIC [12]: 1.6 µg/mL (≈ 2.83 µM) | MICs compared with Cefpirome (Pseudomonas aeruginosa): superior to that of Cefpirome | LD50 at 168 h (Acute toxicity study; mouse, iv, i.v, male ICR mouse, 4 weeks, mortality at seven days, read-out: LD50 i.v): > 2000 mg/kg | LD50 at 168 h (Acute toxicity study; mouse, iv, intravenous routes, read-out: acute toxicity in intravenous routes): > 2000 mg/kg | LD50 at 168 h (Acute toxicity study; mouse, sc, s.c, male ICR mouse, 4 weeks, mortality at seven days, read-out: LD50 s.c): > 3000 mg/kg

CC[N+](C)(CC=CC(N)=O)C/C=C/C1=C(C(=O)[O-])N2C(=O)[C@@H](NC(=O)/C(=N\OCCF)c3csc(N)n3)[C@H]2SC1 (stereo partly drawn) [Example 12, 7β-[(Z)-2-(2-aminothiazol-4-yl)-2-fluoroethoxyiminoacetamdo]-3-[(E)-3-[(1-carbamoyl-1-propen-3-yl)-3-ethylmethylammonio]-1-propen-1-yl]3-cephem-4-carboxylate]
MIC [1]: 0.05 µg/mL (≈ 0.0839 µM) | MIC (Enterobacter cloace P99): 1.6 µg/mL (≈ 2.69 µM) | MIC (Escherichia coli 078): 0.025 µg/mL (≈ 0.042 µM) | MIC (Escherichia coli 1507E; [16]): 0.05 µg/mL (≈ 0.0839 µM) | MIC (Escherichia coli DC 0): < 0.006 µg/mL | MIC (Escherichia coli DC 2): 0.05 µg/mL (≈ 0.0839 µM) | MIC (Escherichia coli TEM): 0.05 µg/mL (≈ 0.0839 µM) | MIC [2]: 3.1 µg/mL (≈ 5.2 µM) | MIC [3, 17]: 0.1 µg/mL (≈ 0.168 µM) | MIC [4]: 6.3 µg/mL (≈ 10.6 µM) | MIC [5]: 0.8 µg/mL (≈ 1.34 µM) | MIC [14]: 12.5 µg/mL (≈ 21 µM) | MIC (Salmonella typhimurium): 0.4 µg/mL (≈ 0.672 µM) | MIC [7]: 0.8 µg/mL (≈ 1.34 µM) | MIC [8]: 0.8 µg/mL (≈ 1.34 µM) | MIC [9]: 0.8 µg/mL (≈ 1.34 µM) | MIC [10]: > 100 µg/mL | MIC [15]: 0.025 µg/mL (≈ 0.042 µM) | MIC [12]: 6.3 µg/mL (≈ 10.6 µM) | MICs compared with Cefotaxime [13]: superior to that of Cefotaxime | LD50 at 168 h (Acute toxicity study; [18]): > 2000 mg/kg | LD50 at 168 h (Acute toxicity study; [19]): > 3000 mg/kg | acute toxicity in intravenous routes (Mouse): > 2000 mg/kg | acute toxicity in subcutaneous routes (Mouse): > 3000 mg/kg

CC[N+](C)(CC=CC(N)=O)C/C=C/C1=C(C(=O)[O-])N2C(=O)[C@@H](NC(=O)/C(=N\OCCF)c3nsc(N)n3)[C@H]2SC1 (stereo partly drawn) [Example 15, 7β-[(Z)-2-(5-amino-1,2,4-thiadiazol-3-yl)-2-fluoroethoxyiminoacetamido]-3-[(E)-3-[(1-carbamoyl-1-propen-3-yl)-3-ethylmethylammonio]-1-propen-1-yl]3-cephem-4-carboxylate]
MIC [1]: 0.05 µg/mL (≈ 0.0838 µM) | MIC (Enterobacter cloace P99): 0.8 µg/mL (≈ 1.34 µM) | MIC (Escherichia coli 078): 0.025 µg/mL (≈ 0.0419 µM) | MIC (Escherichia coli 1507E; [16]): 0.1 µg/mL (≈ 0.168 µM) | MIC (Escherichia coli DC 0): 0.012 µg/mL (≈ 0.0201 µM) | MIC (Escherichia coli DC 2): 0.1 µg/mL (≈ 0.168 µM) | MIC (Escherichia coli TEM): 0.05 µg/mL (≈ 0.0838 µM) | MIC [2]: 3.1 µg/mL (≈ 5.2 µM) | MIC [3, 17]: 0.05 µg/mL (≈ 0.0838 µM) | MIC [4]: 3.1 µg/mL (≈ 5.2 µM) | MIC [5]: 0.8 µg/mL (≈ 1.34 µM) | MIC [6]: 3.1 µg/mL (≈ 5.2 µM) | MIC (Salmonella typhimurium): 0.2 µg/mL (≈ 0.335 µM) | MIC [7]: 0.8 µg/mL (≈ 1.34 µM) | MIC [8]: 0.8 µg/mL (≈ 1.34 µM) | MIC [9]: 0.8 µg/mL (≈ 1.34 µM) | MIC [10]: > 100 µg/mL | MIC [11]: 0.025 µg/mL (≈ 0.0419 µM) | MIC [12]: 3.1 µg/mL (≈ 5.2 µM) | LD50 at 168 h (Acute toxicity study; [18]): > 2000 mg/kg | LD50 at 168 h (Acute toxicity study; [19]): > 3000 mg/kg | acute toxicity in intravenous routes (Mouse): > 2000 mg/kg | acute toxicity in subcutaneous routes (Mouse): > 3000 mg/kg
